{"source": "patent US10792289B2", "about": "(Horizon Orphan LLC, priority 2009, dated 2020)", "test_system": "S. aureus", "test": "Phase 2 study: presumptive S. aureus density in sputum", "type": "in vivo, human", "protocol": "The following dosage regimens (as nebulizer loaded doses) were evaluated: 120 mg QD (daily); 240 mg QD (daily); and 240 mg BID (twice daily).\nPatients were assessed on Day 1, 7, 14, and 28, and then up to 28 days after completion of study drug, namely, Days 42 and 56. The end of the study was defined as the last visit of the last patient.", "key": {"[1]": {"settings": "EE population, Combined 240 mg QD and BID"}, "[2]": {"settings": "EE population, Combined Levofloxacin"}, "[3]": {"settings": "Table 21 (EE population), 120 mg QD"}, "[4]": {"settings": "Table 21 (EE population), 240 mg BID"}, "[5]": {"settings": "Table 21 (EE population), 240 mg QD"}}}
{"smiles": "C[C@H]1COc2c(N3CCN(C)CC3)c(F)cc3c(=O)c(C(=O)O)cn1c23", "note": "[Levofloxacin, levofloxacin]", "values": [{"measurement": "presumptive S. aureus density, Change from Baseline to Day 7, Mean", "setting": "EE population, 120 mg QD", "result": "−1.19", "unit": "log10 CFU/g sputum"}, {"measurement": "presumptive S. aureus density, Day 1, Mean", "setting": "EE population, 120 mg QD", "result": 5.72, "unit": "log10 CFU/g sputum"}, {"measurement": "presumptive S. aureus density, Day 7, Mean", "setting": "EE population, 120 mg QD", "result": 4.53, "unit": "log10 CFU/g sputum"}, {"measurement": "presumptive S. aureus density, Day 14, Mean", "setting": "EE population, 120 mg QD", "result": 5.30, "unit": "log10 CFU/g sputum"}, {"measurement": "presumptive S. aureus density, Day 28, Mean", "setting": "EE population, 120 mg QD", "result": 5.31, "unit": "log10 CFU/g sputum"}, {"measurement": "presumptive S. aureus density, Change from Baseline to Day 28, Mean", "setting": "EE population, 120 mg QD, Day 14", "result": "−0.42", "unit": "log10 CFU/g sputum"}, {"measurement": "presumptive S. aureus density, Change from Baseline to Day 28, Mean", "setting": "EE population, 120 mg QD, Day 28", "result": "−0.41", "unit": "log10 CFU/g sputum"}, {"measurement": "presumptive S. aureus density, Change from Baseline to Day 7, Mean", "setting": "EE population, 240 mg BID", "result": "−0.72", "unit": "log10 CFU/g sputum"}, {"measurement": "presumptive S. aureus density, Day 1, Mean", "setting": "EE population, 240 mg BID", "result": 5.68, "unit": "log10 CFU/g sputum"}, {"measurement": "presumptive S. aureus density, Day 7, Mean", "setting": "EE population, 240 mg BID", "result": 4.96, "unit": "log10 CFU/g sputum"}, {"measurement": "presumptive S. aureus density, Day 14, Mean", "setting": "EE population, 240 mg BID", "result": 4.70, "unit": "log10 CFU/g sputum"}, {"measurement": "presumptive S. aureus density, Day 28, Mean", "setting": "EE population, 240 mg BID", "result": 5.42, "unit": "log10 CFU/g sputum"}, {"measurement": "presumptive S. aureus density, Change from Baseline to Day 28, Mean", "setting": "EE population, 240 mg BID, Day 14", "result": "−0.98", "unit": "log10 CFU/g sputum"}, {"measurement": "presumptive S. aureus density, Change from Baseline to Day 28, Mean", "setting": "EE population, 240 mg BID, Day 28", "result": "−0.38", "unit": "log10 CFU/g sputum"}, {"measurement": "presumptive S. aureus density, Change from Baseline to Day 7, Mean", "setting": "EE population, 240 mg QD", "result": "−0.30", "unit": "log10 CFU/g sputum"}, {"measurement": "presumptive S. aureus density, Day 1, Mean", "setting": "EE population, 240 mg QD", "result": 5.64, "unit": "log10 CFU/g sputum"}, {"measurement": "presumptive S. aureus density, Day 7, Mean", "setting": "EE population, 240 mg QD", "result": 5.34, "unit": "log10 CFU/g sputum"}, {"measurement": "presumptive S. aureus density, Day 14, Mean", "setting": "EE population, 240 mg QD", "result": 5.14, "unit": "log10 CFU/g sputum"}, {"measurement": "presumptive S. aureus density, Day 28, Mean", "setting": "EE population, 240 mg QD", "result": 4.56, "unit": "log10 CFU/g sputum"}, {"measurement": "presumptive S. aureus density, Change from Baseline to Day 28, Mean", "setting": "EE population, 240 mg QD, Day 14", "result": "−0.50", "unit": "log10 CFU/g sputum"}, {"measurement": "presumptive S. aureus density, Change from Baseline to Day 28, Mean", "setting": "EE population, 240 mg QD, Day 28", "result": "−1.08", "unit": "log10 CFU/g sputum"}, {"measurement": "presumptive S. aureus density, Change from Baseline to Day 7, Mean", "setting": "[1]", "result": "−0.47", "unit": "log10 CFU/g sputum"}, {"measurement": "presumptive S. aureus density, Day 1, Mean", "setting": "[1]", "result": 5.65, "unit": "log10 CFU/g sputum"}, {"measurement": "presumptive S. aureus density, Day 7, Mean", "setting": "[1]", "result": 5.18, "unit": "log10 CFU/g sputum"}, {"measurement": "presumptive S. aureus density, Day 14, Mean", "setting": "[1]", "result": 4.96, "unit": "log10 CFU/g sputum"}, {"measurement": "presumptive S. aureus density, Day 28, Mean", "setting": "[1]", "result": 4.89, "unit": "log10 CFU/g sputum"}, {"measurement": "presumptive S. aureus density, Change from Baseline to Day 28, Mean", "setting": "EE population, Combined 240 mg QD and BID, Day 14", "result": "−0.69", "unit": "log10 CFU/g sputum"}, {"measurement": "presumptive S. aureus density, Change from Baseline to Day 28, Mean", "setting": "EE population, Combined 240 mg QD and BID, Day 28", "result": "−0.81", "unit": "log10 CFU/g sputum"}, {"measurement": "presumptive S. aureus density, Change from Baseline to Day 7, Mean", "setting": "[2]", "result": "−0.71", "unit": "log10 CFU/g sputum"}, {"measurement": "presumptive S. aureus density, Day 1, Mean", "setting": "[2]", "result": 5.68, "unit": "log10 CFU/g sputum"}, {"measurement": "presumptive S. aureus density, Day 7, Mean", "setting": "[2]", "result": 4.97, "unit": "log10 CFU/g sputum"}, {"measurement": "presumptive S. aureus density, Day 14, Mean", "setting": "[2]", "result": 5.08, "unit": "log10 CFU/g sputum"}, {"measurement": "presumptive S. aureus density, Day 28, Mean", "setting": "[2]", "result": 5.04, "unit": "log10 CFU/g sputum"}, {"measurement": "presumptive S. aureus density, Change from Baseline to Day 28, Mean", "setting": "EE population, Combined Levofloxacin, Day 14", "result": "−0.60", "unit": "log10 CFU/g sputum"}, {"measurement": "presumptive S. aureus density, Change from Baseline to Day 28, Mean", "setting": "EE population, Combined Levofloxacin, Day 28", "result": "−0.67", "unit": "log10 CFU/g sputum"}, {"measurement": "presumptive S. aureus density, Change from Baseline to Day 7, Mean", "setting": "[3]", "result": "−1.14", "unit": "log10 CFU/g sputum"}, {"measurement": "presumptive S. aureus density, Day 1, Mean", "setting": "[3]", "result": 5.89, "unit": "log10 CFU/g sputum"}, {"measurement": "presumptive S. aureus density, Day 7, Mean", "setting": "[3]", "result": 4.75, "unit": "log10 CFU/g sputum"}, {"measurement": "presumptive S. aureus density, Day 14, Mean", "setting": "[3]", "result": 5.48, "unit": "log10 CFU/g sputum"}, {"measurement": "presumptive S. aureus density, Day 28, Mean", "setting": "[3]", "result": 5.49, "unit": "log10 CFU/g sputum"}, {"measurement": "presumptive S. aureus density, Change from Baseline to Day 28, Mean", "setting": "Table 21 (EE population), 120 mg QD, Day 14", "result": "−0.41", "unit": "log10 CFU/g sputum"}, {"measurement": "presumptive S. aureus density, Change from Baseline to Day 28, Mean", "setting": "Table 21 (EE population), 120 mg QD, Day 28", "result": "−0.41", "unit": "log10 CFU/g sputum"}, {"measurement": "presumptive S. aureus density, Change from Baseline to Day 7, Mean", "setting": "[4]", "result": "−0.66", "unit": "log10 CFU/g sputum"}, {"measurement": "presumptive S. aureus density, Day 1, Mean", "setting": "[4]", "result": 5.51, "unit": "log10 CFU/g sputum"}, {"measurement": "presumptive S. aureus density, Day 7, Mean", "setting": "[4]", "result": 4.65, "unit": "log10 CFU/g sputum"}, {"measurement": "presumptive S. aureus density, Day 14, Mean", "setting": "[4]", "result": 4.32, "unit": "log10 CFU/g sputum"}, {"measurement": "presumptive S. aureus density, Day 28, Mean", "setting": "[4]", "result": 4.95, "unit": "log10 CFU/g sputum"}, {"measurement": "presumptive S. aureus density, Change from Baseline to Day 28, Mean", "setting": "Table 21 (EE population), 240 mg BID, Day 14", "result": "−0.99", "unit": "log10 CFU/g sputum"}, {"measurement": "presumptive S. aureus density, Change from Baseline to Day 28, Mean", "setting": "Table 21 (EE population), 240 mg BID, Day 28", "result": "−0.44", "unit": "log10 CFU/g sputum"}, {"measurement": "presumptive S. aureus density, Change from Baseline to Day 7, Mean", "setting": "[5]", "result": "−0.40", "unit": "log10 CFU/g sputum"}, {"measurement": "presumptive S. aureus density, Day 1, Mean", "setting": "[5]", "result": 5.63, "unit": "log10 CFU/g sputum"}, {"measurement": "presumptive S. aureus density, Day 7, Mean", "setting": "[5]", "result": 5.23, "unit": "log10 CFU/g sputum"}, {"measurement": "presumptive S. aureus density, Day 14, Mean", "setting": "[5]", "result": 4.97, "unit": "log10 CFU/g sputum"}, {"measurement": "presumptive S. aureus density, Day 28, Mean", "setting": "[5]", "result": 4.48, "unit": "log10 CFU/g sputum"}, {"measurement": "presumptive S. aureus density, Change from Baseline to Day 28, Mean", "setting": "Table 21 (EE population), 240 mg QD, Day 14", "result": "−0.66", "unit": "log10 CFU/g sputum"}]}
